Values of other authors, collected in US6518254B1, “Ribonucleoside-TRIBOSE” (priority 2002, dated 2003).

Assays:
[1] = compared with Ribavirin
DNA and RNA viruses = settings: in vitro tissue culture; at least 16 DNA and RNA viruses; Science, 177, 705, 1972

## NC(=O)c1ncn([C@H]2O[C@@H](CO)[C@H](O)[C@@H]2O)n1 (single isomer, unassigned) [L isomer of Ribavirin]
[1]
  immuno-modulatory activity: immuno-modulatory activity similar to Ribavirin

## NC(=O)c1ncn([C@@H]2O[C@H](CO)[C@@H](O)[C@H]2O)n1 [Ribavirin, 1-beta-D-ribofuranosyl-1H-1,2,4-triazole-3-carboxamide]
DNA and RNA viruses
  antiviral activity in tissue culture: active against at least 16 DNA and RNA viruses
